The record followed here is ChEMBL document CHEMBL1201862, “PubChem BioAssay data set” (2004).

The AC50 is the concentration giving half of the maximal activity seen.

For data set [1], the target named is Large T antigen (Simian virus 40, UniProt P03070). The data set is classed as functional, Betapolyomavirus macacae.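 Also: Confirmatory-stage PubChem screen for compounds that inhibit SV40 T antigen.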
Data set [2] is described as follows: viability of HCT116 lacking mutant beta-catenin – cell-based, human colon tumor, dose response (AID 1045).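 Also: HCT116 colon tumor cells with beta catenin knocked out; cells exposed to compound for 60 hours.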 It counts as functional.
Data set [3] deals with T1, Sentrin-specific protease 8 (Homo sapiens, UniProt Q96LD8).
T1 sequence (Q96LD8 whole entry): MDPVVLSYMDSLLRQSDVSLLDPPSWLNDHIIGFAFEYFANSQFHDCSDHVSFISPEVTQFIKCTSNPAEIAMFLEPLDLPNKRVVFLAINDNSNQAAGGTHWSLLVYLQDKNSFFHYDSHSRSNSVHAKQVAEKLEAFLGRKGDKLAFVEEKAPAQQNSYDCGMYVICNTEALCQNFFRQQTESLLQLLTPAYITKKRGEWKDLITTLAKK
The data set is classed as functional.

The target of data set [4] is T2, Sentrin-specific protease 7 (Homo sapiens, UniProt Q9BQF6).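 Also: Luminescence-based dose-response confirmation of ultra-high-throughput screening hits, measuring inhibition of SENP7.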
T2 sequence (Q9BQF6 whole entry): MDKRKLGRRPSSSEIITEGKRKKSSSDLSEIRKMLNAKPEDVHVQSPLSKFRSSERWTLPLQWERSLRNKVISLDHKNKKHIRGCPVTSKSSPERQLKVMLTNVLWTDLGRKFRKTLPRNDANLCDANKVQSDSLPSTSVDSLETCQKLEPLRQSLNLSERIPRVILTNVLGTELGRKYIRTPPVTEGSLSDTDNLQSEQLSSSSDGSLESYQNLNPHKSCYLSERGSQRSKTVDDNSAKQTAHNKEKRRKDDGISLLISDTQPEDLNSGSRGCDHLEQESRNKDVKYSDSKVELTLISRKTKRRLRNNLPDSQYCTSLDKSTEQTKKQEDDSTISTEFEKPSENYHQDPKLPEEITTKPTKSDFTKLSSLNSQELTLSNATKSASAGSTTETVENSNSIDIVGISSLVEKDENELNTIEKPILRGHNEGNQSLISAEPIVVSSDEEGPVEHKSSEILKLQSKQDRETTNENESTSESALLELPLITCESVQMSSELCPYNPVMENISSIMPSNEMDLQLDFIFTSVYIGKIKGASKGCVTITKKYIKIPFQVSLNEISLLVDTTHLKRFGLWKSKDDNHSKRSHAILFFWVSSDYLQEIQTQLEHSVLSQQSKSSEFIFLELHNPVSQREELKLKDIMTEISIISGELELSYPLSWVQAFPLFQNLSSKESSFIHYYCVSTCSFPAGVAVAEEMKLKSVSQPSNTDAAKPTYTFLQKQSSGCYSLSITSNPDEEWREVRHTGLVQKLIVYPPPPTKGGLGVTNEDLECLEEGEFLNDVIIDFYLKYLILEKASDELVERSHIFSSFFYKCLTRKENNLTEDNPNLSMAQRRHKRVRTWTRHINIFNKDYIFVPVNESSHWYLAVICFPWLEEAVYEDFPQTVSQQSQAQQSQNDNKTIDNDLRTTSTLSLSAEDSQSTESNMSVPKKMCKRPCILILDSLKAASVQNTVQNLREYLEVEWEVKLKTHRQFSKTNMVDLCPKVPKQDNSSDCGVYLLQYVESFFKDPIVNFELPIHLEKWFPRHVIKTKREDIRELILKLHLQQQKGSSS
It counts as functional.

Data set [5] addresses T3, Caspase-3 (Homo sapiens, UniProt P42574).
T3 sequence (P42574 whole entry): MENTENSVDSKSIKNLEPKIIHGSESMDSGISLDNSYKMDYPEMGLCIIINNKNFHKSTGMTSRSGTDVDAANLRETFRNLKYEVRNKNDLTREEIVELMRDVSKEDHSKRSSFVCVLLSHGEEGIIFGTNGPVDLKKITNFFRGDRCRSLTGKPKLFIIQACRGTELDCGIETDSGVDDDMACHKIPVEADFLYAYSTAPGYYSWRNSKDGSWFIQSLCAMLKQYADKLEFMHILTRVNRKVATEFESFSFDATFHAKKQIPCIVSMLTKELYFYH
The data set is classed as functional.

The target of data set [6] is T4, Sentrin-specific protease 6 (Homo sapiens, UniProt Q9GZR1).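 Also: Luminescence-based dose-response confirmatory assay of SENP6 inhibition, following up an ultra-high-throughput screen.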
T4 sequence (Q9GZR1 whole entry): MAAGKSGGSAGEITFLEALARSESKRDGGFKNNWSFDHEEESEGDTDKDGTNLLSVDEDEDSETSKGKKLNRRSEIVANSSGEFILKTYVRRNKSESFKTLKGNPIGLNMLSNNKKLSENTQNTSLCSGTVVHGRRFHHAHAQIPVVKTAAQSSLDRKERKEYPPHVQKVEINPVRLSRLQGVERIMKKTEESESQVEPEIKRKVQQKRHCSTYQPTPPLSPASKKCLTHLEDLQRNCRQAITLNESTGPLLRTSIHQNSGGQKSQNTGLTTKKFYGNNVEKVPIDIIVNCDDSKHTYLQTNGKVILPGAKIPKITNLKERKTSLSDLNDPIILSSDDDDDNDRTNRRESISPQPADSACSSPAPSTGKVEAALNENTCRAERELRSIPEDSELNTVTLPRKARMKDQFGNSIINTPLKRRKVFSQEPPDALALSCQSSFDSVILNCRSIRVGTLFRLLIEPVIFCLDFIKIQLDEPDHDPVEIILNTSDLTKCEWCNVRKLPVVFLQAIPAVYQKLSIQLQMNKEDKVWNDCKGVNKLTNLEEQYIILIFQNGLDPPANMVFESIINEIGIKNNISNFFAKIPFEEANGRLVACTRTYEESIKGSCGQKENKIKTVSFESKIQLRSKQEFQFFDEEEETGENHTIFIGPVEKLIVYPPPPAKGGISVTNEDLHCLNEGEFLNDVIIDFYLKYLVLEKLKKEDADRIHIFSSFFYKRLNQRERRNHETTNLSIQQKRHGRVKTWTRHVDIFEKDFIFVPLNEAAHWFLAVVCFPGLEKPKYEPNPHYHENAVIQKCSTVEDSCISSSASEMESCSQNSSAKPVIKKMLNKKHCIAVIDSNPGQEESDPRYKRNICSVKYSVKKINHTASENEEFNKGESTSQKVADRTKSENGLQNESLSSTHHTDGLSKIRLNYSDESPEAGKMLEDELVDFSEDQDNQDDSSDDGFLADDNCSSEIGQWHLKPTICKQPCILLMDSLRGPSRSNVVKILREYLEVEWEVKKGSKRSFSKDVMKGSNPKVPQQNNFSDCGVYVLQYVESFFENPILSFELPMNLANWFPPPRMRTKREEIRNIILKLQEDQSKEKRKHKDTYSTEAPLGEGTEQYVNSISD
It counts as functional.

Data set [7] has as its target T5, Heat shock factor protein 1 (Mus musculus, UniProt P38532).
T5 sequence (P38532 whole entry): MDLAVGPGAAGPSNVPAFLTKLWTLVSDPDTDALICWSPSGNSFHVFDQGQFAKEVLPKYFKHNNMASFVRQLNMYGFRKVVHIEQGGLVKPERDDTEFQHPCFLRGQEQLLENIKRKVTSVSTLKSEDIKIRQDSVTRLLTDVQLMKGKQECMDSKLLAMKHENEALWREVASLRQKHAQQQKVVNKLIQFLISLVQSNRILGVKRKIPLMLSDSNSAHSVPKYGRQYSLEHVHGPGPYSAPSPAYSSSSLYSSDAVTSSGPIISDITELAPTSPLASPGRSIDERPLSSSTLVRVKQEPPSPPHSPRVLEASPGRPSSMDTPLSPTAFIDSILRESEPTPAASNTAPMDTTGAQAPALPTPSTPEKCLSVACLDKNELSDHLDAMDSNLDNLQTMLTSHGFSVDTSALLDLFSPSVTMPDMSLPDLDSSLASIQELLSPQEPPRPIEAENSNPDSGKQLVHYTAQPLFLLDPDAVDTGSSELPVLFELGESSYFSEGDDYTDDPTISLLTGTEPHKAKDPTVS
Kind of data set: enhancement of HSF1-driven luciferase signal – cell-based, NIH3T3, luminescence, dose retest, confirmation (AID 435004).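 Also: stress induced by proteasome inhibitor MG132 added 30 min after compound; luciferase reporter driven by HSF1 response element in NIH3T3 cells; actives raise luminescence as potentiators of the MG132 stress response.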 It counts as functional.

For data set [8], the target named is Cytochrome P450 2C9 (Homo sapiens, UniProt P11712).
Data set [9] has as its target Cytochrome P450 2D6 (Homo sapiens, UniProt P10635).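 Also: CYP2D6 member of a cytochrome P450 panel assay.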
For data set [10], the target named is T6, Corticotropin-releasing factor receptor 2/Corticotropin-releasing factor-binding protein (Homo sapiens, UniProt P24387+Q13324).
T6 sequence (Q13324 whole entry): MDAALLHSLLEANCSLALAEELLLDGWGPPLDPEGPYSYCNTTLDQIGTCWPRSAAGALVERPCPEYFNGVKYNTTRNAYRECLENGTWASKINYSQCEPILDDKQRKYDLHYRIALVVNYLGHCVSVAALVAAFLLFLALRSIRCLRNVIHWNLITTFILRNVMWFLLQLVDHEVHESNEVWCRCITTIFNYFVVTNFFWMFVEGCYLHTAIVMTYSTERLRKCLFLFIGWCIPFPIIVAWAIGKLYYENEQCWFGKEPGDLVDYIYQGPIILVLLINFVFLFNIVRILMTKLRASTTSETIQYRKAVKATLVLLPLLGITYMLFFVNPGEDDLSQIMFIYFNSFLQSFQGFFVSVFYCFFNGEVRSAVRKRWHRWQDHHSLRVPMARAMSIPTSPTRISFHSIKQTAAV
T6 sequence (P24387 whole entry): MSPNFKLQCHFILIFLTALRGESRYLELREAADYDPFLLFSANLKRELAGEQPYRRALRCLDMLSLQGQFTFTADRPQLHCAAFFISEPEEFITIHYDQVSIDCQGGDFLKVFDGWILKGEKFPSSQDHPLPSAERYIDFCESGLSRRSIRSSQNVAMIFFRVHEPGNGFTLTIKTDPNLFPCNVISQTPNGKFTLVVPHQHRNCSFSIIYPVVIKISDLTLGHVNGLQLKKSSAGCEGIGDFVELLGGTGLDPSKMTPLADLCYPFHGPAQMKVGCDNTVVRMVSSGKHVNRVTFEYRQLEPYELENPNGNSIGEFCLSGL
Kind of data set: activators of CRF receptor 2 with binding protein – uHTS hits, confirmation (AID 602473). As to conditions: read-out: EC50_Mean. It counts as functional.

Data set [11] deals with T6, Corticotropin-releasing factor receptor 2/Corticotropin-releasing factor-binding protein. Kind of data set: Dose Response confirmation of uHTS hits for small molecule antagonists of the CRF-binding protein and CRF-R2 receptor complex. The data set is classed as functional. As to conditions: read-out: IC50_Mean.

The structures appear in SMILES notation. Active and inactive are the calls of the source.

Sequence of Large T antigen (P03070 whole entry): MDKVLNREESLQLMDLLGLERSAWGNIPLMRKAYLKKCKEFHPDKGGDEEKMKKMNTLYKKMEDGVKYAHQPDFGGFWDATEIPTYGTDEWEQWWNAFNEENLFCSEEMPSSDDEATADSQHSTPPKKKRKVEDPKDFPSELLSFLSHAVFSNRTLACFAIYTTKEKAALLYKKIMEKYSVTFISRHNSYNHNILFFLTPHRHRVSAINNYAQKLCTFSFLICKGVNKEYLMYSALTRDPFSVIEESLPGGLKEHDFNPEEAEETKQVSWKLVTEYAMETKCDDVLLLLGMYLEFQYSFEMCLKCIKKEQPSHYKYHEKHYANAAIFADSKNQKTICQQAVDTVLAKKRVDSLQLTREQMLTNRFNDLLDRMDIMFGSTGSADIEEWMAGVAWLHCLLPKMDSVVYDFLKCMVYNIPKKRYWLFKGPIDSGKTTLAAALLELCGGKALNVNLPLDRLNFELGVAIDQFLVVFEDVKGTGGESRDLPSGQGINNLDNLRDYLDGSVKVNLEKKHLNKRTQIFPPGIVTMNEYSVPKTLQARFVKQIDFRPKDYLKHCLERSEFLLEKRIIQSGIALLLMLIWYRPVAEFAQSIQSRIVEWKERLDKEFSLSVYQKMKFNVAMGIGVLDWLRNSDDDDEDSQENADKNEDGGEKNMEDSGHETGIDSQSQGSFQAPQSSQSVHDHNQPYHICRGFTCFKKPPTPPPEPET
Sequence of Cytochrome P450 2C9 (P11712 whole entry): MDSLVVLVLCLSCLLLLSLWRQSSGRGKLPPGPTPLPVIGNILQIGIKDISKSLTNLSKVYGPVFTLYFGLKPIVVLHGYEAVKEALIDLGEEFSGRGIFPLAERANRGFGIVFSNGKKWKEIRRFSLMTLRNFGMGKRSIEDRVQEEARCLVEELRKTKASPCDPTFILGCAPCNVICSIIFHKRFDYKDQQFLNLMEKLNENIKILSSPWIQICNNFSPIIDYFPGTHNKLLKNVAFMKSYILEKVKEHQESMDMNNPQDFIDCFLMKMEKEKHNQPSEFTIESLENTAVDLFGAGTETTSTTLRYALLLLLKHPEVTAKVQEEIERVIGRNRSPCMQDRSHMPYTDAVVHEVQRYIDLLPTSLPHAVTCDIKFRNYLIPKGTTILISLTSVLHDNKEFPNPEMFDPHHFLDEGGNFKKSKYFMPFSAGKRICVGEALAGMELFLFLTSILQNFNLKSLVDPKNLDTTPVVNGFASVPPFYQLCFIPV
Sequence of Cytochrome P450 2D6 (P10635 whole entry): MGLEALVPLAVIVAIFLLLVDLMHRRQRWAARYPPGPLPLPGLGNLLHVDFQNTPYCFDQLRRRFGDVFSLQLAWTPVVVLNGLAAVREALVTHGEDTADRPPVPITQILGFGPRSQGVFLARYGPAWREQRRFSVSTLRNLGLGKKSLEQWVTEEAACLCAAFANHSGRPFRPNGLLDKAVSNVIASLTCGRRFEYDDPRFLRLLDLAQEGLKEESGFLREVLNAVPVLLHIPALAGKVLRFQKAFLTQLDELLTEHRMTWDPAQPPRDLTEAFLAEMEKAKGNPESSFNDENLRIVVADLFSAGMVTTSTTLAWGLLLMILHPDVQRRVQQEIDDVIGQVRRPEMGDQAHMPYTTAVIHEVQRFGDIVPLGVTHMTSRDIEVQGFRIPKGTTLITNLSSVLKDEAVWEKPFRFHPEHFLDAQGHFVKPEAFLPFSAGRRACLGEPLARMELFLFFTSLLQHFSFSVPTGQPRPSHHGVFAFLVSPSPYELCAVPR

Consider `Cc1cc(NC(=O)CN2CCN(c3ccc(O)cc3)CC2)no1`, for which the IC50 in data set [1] was 9.24 µM (active). In data set [2], the EC50 was 31.9 µM (active).
As for `CC(=O)c1c(C)oc2ccc(OCc3ccccc3)cc12`, the IC50 is 75.8 µM (active) in data set [3], 11.4 µM (active) in [4], 39 µM (active) in data set [5] and 45.3 µM (active) in data set [6].
Consider `COc1ccc(-c2cc(-c3cc(C)ccc3O)n[nH]2)cc1`, for which the IC50 in data set [3] was 9.6 µM (active); in [4], 4.46 µM (active); in data set [5] it was 44.2 µM (active); in [6] it was 10.3 µM (active).
As to `COc1ccc(/N=C(\C)C2=C(O)c3ccccc3C2=O)cc1`, the IC50 was 6.43 µM (active) in data set [3], 1.99 µM (active) in [4], 4.38 µM (active) in data set [5] and 5.08 µM (active) in [6]. Also, the EC50 in data set [7] is > 260 µM (inactive).
As to `Cc1cc(C)nc(NC(=O)/C=C/c2ccc(Cl)cc2Cl)c1`, the IC50 in data set [3] was 3.93 µM (active); in [4], 3.39 µM (active); in [5] it was 14.1 µM (active); in data set [6] it was 3.51 µM (active). The AC50 entry in data set [8] was “inconclusive”; in data set [9], 20 µM (inconclusive).
In the case of `O=C(O/N=C1\CCCc2ccccc21)c1ccc(F)cc1`, the IC50 in data set [3] was 2.09 µM (active); in data set [4] it was 2.15 µM (active); in [5], 2.23 µM (active); in data set [6], 2.34 µM (active).
Consider `COc1ccc(C(=O)O/N=C(\N)c2ccc(OC)c(OC)c2)cc1`, for which the IC50 is 11.5 µM (active) in data set [3], 8.96 µM (active) in [4], 13.3 µM (active) in data set [5] and 11.5 µM (active) in data set [6].
Take `O=C(Nc1ccc(Cl)cn1)c1ccc(Oc2ccccc2)cc1`: the IC50 in [3] is 3.37 µM (active); in data set [4], 2.3 µM (active); in [5], 5.66 µM (active); in data set [6], 3.22 µM (active).
`O=c1oc(-c2ccco2)nc2sc3c(c12)CCCC3`: the IC50 in data set [3] is > 100 µM (inactive); in [4], 5.4 µM (active); in data set [5], 41.7 µM (active); in data set [11], > 47.1 µM (inactive); in data set [6], 35.1 µM (active). For the same molecule, the EC50 in data set [10] was > 53 µM (inactive).
For `O=C(Nc1cccs1)Nc1ccc(Br)cc1F`, the IC50 in [3] was > 100 µM (inactive); in [4], 11.4 µM (active); in [5] it was 45.8 µM (active); in data set [6], 86.7 µM (active).
The like results for `COC(=O)c1sccc1NC(=O)Cc1ccc(Br)cc1` were, in that order, 24.8 µM (active), 7.65 µM (active), 17.9 µM (active) and 20.3 µM (active).
